Data as given in US10273224B2, “Substituted pyrimidine compounds, compositions and medicinal applications thereof” (JUBILANT BIOSYS LIMITED, priority 2013, dated 2019).
pIC50: −log10 of the molar value.

molecular target: T1, EGFR (L858R & T790M) (Homo sapiens, UniProt P00533, L858R/T790M); experiment: EGFR (L858R & T790M) inhibition assay, HTRF method; conditions: biochemical HTRF; EGFR (T790M/L858R) 2.5 nM, ATP 5 μM, 60 min room temperature
T1 construct: GST; purchased Proqinase
Summary of the method: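 GST-EGFR T790M/L858R (2.5 nM) phosphorylating biotinylated gastrin precursor peptide (0.5 μM) with 5 μM ATP in HEPES pH 7.4/Mg/Mn buffer, 60 min room temperature; compounds from 10 μM top. HTRF read-out (Eu anti-pTyr, SA-APC), 665/620 nm; IC50 from % inhibition.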

T1 sequence (P00533 25-1210 T790M/L858R): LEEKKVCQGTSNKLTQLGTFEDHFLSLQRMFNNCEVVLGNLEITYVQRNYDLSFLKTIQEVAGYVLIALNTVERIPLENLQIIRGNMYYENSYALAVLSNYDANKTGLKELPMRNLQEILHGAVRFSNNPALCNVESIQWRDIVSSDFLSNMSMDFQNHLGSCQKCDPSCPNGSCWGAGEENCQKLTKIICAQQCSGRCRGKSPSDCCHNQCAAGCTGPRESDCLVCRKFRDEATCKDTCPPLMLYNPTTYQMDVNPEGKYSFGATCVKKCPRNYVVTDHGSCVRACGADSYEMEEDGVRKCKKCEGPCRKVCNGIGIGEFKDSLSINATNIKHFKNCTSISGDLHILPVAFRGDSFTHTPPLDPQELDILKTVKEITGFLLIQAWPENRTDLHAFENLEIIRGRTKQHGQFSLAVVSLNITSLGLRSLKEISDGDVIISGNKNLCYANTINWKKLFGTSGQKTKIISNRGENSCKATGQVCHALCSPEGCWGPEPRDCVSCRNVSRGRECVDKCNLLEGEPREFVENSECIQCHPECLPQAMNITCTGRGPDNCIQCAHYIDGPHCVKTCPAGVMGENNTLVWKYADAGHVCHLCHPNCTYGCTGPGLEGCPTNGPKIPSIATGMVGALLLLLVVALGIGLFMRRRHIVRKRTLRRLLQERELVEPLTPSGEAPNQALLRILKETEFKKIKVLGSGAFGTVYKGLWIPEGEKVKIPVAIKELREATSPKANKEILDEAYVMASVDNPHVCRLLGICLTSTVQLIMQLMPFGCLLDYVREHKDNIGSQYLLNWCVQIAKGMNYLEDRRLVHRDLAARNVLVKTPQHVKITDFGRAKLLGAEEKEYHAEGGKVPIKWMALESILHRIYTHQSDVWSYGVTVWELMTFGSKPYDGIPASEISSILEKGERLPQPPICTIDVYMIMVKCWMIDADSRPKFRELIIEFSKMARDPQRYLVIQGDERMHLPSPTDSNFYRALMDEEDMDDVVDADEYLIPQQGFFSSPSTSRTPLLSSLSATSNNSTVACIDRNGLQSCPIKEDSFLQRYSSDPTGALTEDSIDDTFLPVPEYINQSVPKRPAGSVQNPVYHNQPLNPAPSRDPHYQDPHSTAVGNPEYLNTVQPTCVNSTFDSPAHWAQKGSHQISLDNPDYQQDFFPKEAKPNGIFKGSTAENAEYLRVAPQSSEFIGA

| SMILES | pIC50 |
| --- | --- |
| C=CC(=O)Nc1cccc(Oc2nc(Nc3cc4n(n3)CCN(C)C4)ncc2Cl)c1 [Compound I-78, N-(3-((5-chloro-2-((5-methyl-4,5,6,7-tetrahydropyrazolo[1,5-a]pyrazin-2-yl)amino)pyrimidin-4-yl)oxy)phenyl)acrylamide] | 7.00 to 8.00 |
| C=CC(=O)Nc1cccc(Oc2nc(Nc3c(C)nn(C4CCN(C)CC4)c3C)ncc2Cl)c1 [Compound I-83, N-(3-((5-chloro-2-((3,5-dimethyl-1-(1-methylpiperidin-4-yl)-1H-pyrazol-4-yl)amino)pyrimidin-4-yl)oxy)phenyl)acrylamide] | < 7.00 |
| C=CC(=O)N[C@@H]1CCCC[C@H](Nc2nc(Nc3cnn(C)c3)ncc2Cl)C1 (single isomer, unassigned) [I-113 (Isomer 2)] | 7.00 to 8.00 |
| C=CC(=O)Nc1cccc(Oc2nc(Nc3cnn(CCO)c3)ncc2Cl)c1 [Compound I-47, N-(3-((5-chloro-2-((1-(2-hydroxyethyl)-1H-pyrazol-4-yl)amino)pyrimidin-4-yl)oxy)phenyl)acrylamide] | > 8.00 |
| CN(C)C/C=C/C(=O)NC1CCCC(Oc2nc(Nc3cnn(C)c3)ncc2Cl)C1 (single isomer, unassigned) [I-91 (Isomer 2), (E)-N-(3-((5-chloro-2-((1-methyl-1H-pyrazol-4-yl)amino)pyrimidin-4-yl)oxy)cyclohexyl)-4-(dimethylamino)but-2-enamide] | < 7.00 |
| C=CC(=O)N1CCC(Oc2nc(Nc3cnn(C)c3)ncc2Cl)C1 (single isomer, unassigned) [II-11 (Enantiomer 2), 1-(3-((5-chloro-2-((1-methyl-1H-pyrazol-4-yl)amino)pyrimidin-4-yl)oxy)pyrrolidin-1-yl)prop-2-en-1-one] | < 7.00 |
| C=CC(=O)Nc1ccc(F)c(N(C)c2nc(Nc3cnn(C)c3)ncc2Cl)c1 [Compound I-111, N-(3-((5-chloro-2-((1-methyl-1H-pyrazol-4-yl)amino)pyrimidin-4-yl)(methyl)amino)-4-fluorophenyl)acrylamide] | > 8.00 |
| C=CC(=O)Nc1ccc(F)c(Nc2nc(Nc3ncc(Cl)s3)ncc2Cl)c1 [Compound I-120, N-(3-((5-chloro-2-((5-chlorothiazol-2-yl)amino)pyrimidin-4-yl)amino)-4-fluorophenyl)acrylamide] | < 7.00 |
| C=CC(=O)Nc1cccc(Nc2nc(Nc3cnn(C4CCN(CCF)CC4)c3)ncc2Cl)c1 [Compound I-16, N-(3-((5-chloro-2-((1-(1-(2-fluoroethyl)piperidin-4-yl)-1H-pyrazol-4-yl)amino)pyrimidin-4-yl)amino)phenyl)acrylamide] | > 8.00 |
| C=CC(=O)Nc1cccc(Nc2nc(Nc3ncc(N4CCN(C)CC4)s3)ncc2Cl)c1 [Compound I-40, N-(3-((5-chloro-2-((5-(4-methylpiperazin-1-yl)thiazol-2-yl)amino)pyrimidin-4-yl)amino)phenyl)acrylamide] | 7.00 to 8.00 |
| CN1CCC(n2cc(Nc3ncc(Cl)c(Nc4cccc(NC(=O)C=C5CCCC5)c4)n3)cn2)CC1 [Compound I-30, N-(3-((5-chloro-2-((1-(1-methylpiperidin-4-yl)-1H-pyrazol-4-yl)amino)pyrimidin-4-yl)amino)phenyl)-2-cyclopentylideneacetamide] | < 7.00 |
| C=CC(=O)Nc1cccc(Oc2nc(Nc3cnn(C(C)C)c3)ncc2Cl)c1 [Compound I-79, N-(3-((5-chloro-2-((1-isopropyl-1H-pyrazol-4-yl)amino)pyrimidin-4-yl)oxy)phenyl)acrylamide] | 7.00 to 8.00 |
| C=CC(=O)Nc1cccc(Nc2nc(Nc3cnn(CCN(C)C)c3)ncc2Cl)c1 [Compound I-5, N-(3-((5-chloro-2-((1-(2-(dimethylamino)ethyl)-1H-pyrazol-4-yl)amino)pyrimidin-4-yl)amino)phenyl)acrylamide] | 7.00 to 8.00 |
| C=CC(=O)NC1CCCC(Nc2nc(Nc3cc(C)ns3)ncc2Cl)C1 (centres unmarked) [Compound I-114, N-(3-((5-chloro-2-((3-methylisothiazol-5-yl)amino)pyrimidin-4-yl)amino)cyclohexyl)acrylamide] | 7.00 to 8.00 |
| C=CC(=O)N1CCC(Nc2nc(Nc3cnn(C)c3)ncc2Cl)C1 (racemic) [II-7 (Racemic), 1-(3-((5-chloro-2-((1-methyl-1H-pyrazol-4-yl)amino)pyrimidin-4-yl)amino)pyrrolidin-1-yl)prop-2-en-1-one] | < 7.00 |
| C=CC(=O)Nc1cccc(Nc2nc(Nc3cnn(C4CCNC(=O)C4)c3)ncc2Cl)c1 (centres unmarked) [Compound I-43, N-(3-((5-chloro-2-((1-(2-oxopiperidin-4-yl)-1H-pyrazol-4-yl)amino)pyrimidin-4-yl)amino)phenyl)acrylamide] | 7.00 to 8.00 |
| C=CC(=O)Nc1cccc(Nc2nc(Nc3cnn(C4CCOC4)c3)ncc2Cl)c1 (centres unmarked) [Compound I-49, N-(3-((5-chloro-2-((1-(tetrahydrofuran-3-yl)-1H-pyrazol-4-yl)amino)pyrimidin-4-yl)amino)phenyl)acrylamide] | 7.00 to 8.00 |
